Laboratory results from US12545672B2, “Antibiotic compounds, methods of manufacturing the same, pharmaceutical compositions containing the same and uses thereof” (Debiopharm International S.A., priority 2018, dated 2026).
Like-named read-outs stand apart in the source and are kept apart here. One block for each molecule: values may come before it.

How the values were obtained:
Neisseria gonorrhoeae = test: MIC50 by CLSI agar dilution on a panel of N. gonorrhoeae clinical isolates; format: cell-based
Procedure: MIC50: MICs were determined in accordance with the appropriate Clinical and Laboratory Standards Institute (CLSI) methodology by the agar dilution susceptbility testing method in GC agar base.

[1] = Mouse cassette PK and oral bioavailability determination; format: in vivo, Female BALB/c mice; conditions: iv 1 mg/kg, po 2 mg/kg, cassette dosing; for bioavailability: female, BALB/c, mouse, plasma, read-out: Mouse F (%)
Procedure: Dose volumes were 5 ml/kg and 10 ml/kg for IV and oral administration, respectively. Compounds were co-formulated in a 10% DMSO (v/v) and 40% Captisol (w/v) in saline solution formulation (up to 3 compounds in a cassette). […] Tmax, Cmax, AUC, clearance, volume of distribution and oral bioavailability were estimated from the plasma concentrations using non-compartmental pharmacokinetic models. In particular, oral bioavailability (F %) was defined as F=(Doseiv*AUCpo)/(Dosepo*AUCiv)*100

[2] = Prediction of hepatic extraction ratio from liver microsome stability; format: in vitro ADME; conditions: human liver microsomes, Well-Stirred model
[3] = biological target: Neisseria gonorrhoeae FabI (Neisseria gonorrhoeae, UniProt A0ACH0F547); test: Neisseria gonorrhoeae FabI inhibition assay (NADH consumption)
[4] = Caco-2 permeability assay; format: in vitro ADME; conditions: human, Caco-2; A2B, 120 min incubation
Procedure: (§1) Caco-2 assay: Compounds were incubated in a Caco-2 24-transwell system (Solvo Biotechnologies, Hungary) for 120 min, after which samples were taken from the donor and acceptor compartments of the transwell system. The integrity of each cell monolayer was controlled by measuring transepithelial electrical resistance (TEER) before the experiment. Lucifer yellow permeability (B to A) was also tested as a control on the same plate (all wells) after the actual experiment. The samples were analyzed using UPLC/MS/MS. The permeation of the compounds was monitored using relative LC/MS/MS peak areas (initial donor solution sample=100%).

Caco-2 = Caco-2 permeability assay; format: in vitro ADME; conditions: 120 min incubation
Procedure: as §1

[5] = biological target: Chlamydia trachomatis FabI (Chlamydia trachomatis serovar D (strain ATCC VR-885 / DSM 19411 / UW-3/Cx), UniProt O84106); test: Chlamydia trachomatis FabI inhibition assay (NADH consumption); conditions: read-out: CT FABI IC50; recombinant C. trachomatis FabI, 30° C., pH 7.0
[6] = Neisseria gonorrhoeae, agar dilution, GC agar base, minimum of 15 clinical isolates, read-out: MIC50

Neisseria gonorrhoeae FabI, sequence (A0ACH0F547 1-261): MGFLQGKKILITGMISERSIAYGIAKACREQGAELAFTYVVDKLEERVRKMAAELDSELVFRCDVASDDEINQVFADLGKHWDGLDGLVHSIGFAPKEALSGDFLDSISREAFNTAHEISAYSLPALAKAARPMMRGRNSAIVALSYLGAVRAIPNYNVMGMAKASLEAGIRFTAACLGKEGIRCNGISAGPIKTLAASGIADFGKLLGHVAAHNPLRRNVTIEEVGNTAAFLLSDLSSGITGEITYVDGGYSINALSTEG
Chlamydia trachomatis FabI, sequence (O84106 1-298): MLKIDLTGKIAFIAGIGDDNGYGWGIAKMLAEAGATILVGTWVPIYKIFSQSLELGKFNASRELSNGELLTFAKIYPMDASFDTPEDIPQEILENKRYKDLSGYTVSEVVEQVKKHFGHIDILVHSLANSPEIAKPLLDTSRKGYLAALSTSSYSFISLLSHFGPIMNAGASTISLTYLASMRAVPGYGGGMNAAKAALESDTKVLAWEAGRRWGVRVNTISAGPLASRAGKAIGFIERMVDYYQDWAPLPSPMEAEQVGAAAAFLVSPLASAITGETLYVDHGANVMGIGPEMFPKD

Compound: O=C1CCNc2cc(/C=C/C(=O)N3C[C@H]4CC(c5ccc(Oc6cncs6)cc5)=C[C@H]4C3)cnc2N1 [Compound 96, 8-((E)-3-Oxo-3-((3aS,6aR)-5-(4-(thiazol-5-yloxy)phenyl)-3,3a,4,6a-tetrahydrocyclopenta[c]pyrrol-2(1H)-yl)prop-1-en-1-yl)-1,2,3,5-tetrahydro-4H-pyrido[2,3-b][1,4]diazepin-4-one]
MIC50 (Neisseria gonorrhoeae; [6]): < 1 µg/mL
bioavailability [1]: 16%
Predict Human hep ER [2]: 0.2
IC50 [3]: < 10 nM

Compound: Cc1oc2c(Oc3ccc(C#N)cc3)cccc2c1CN(C)C(=O)/C=C/c1cnc2c(c1)NCCC(=O)N2 [Compound 80, (E)-N-((7-(4-cyanophenoxy)-2-methylbenzofuran-3-yl)methyl)-N-methyl-3-(4-oxo-2,3,4,5-tetrahydro-1H-pyrido[2,3-b][1,4]diazepin-8-yl)acrylamide]
MIC50 (Neisseria gonorrhoeae; Neisseria gonorrhoeae): < 1 µg/mL
bioavailability [1]: 35%
Predict Human hep ER [2]: 0.25
IC50 [3]: < 10 nM

Compound: Cc1c(CN(C)C(=O)/C=C/c2cnc3c(c2)NCC2(CC(O)C2)C(=O)N3)oc2ccccc12 (stereo not shown) [Compound 115, (E)-3-(3-Hydroxy-4′-oxo-1′,2′,4′,5′-tetrahydrospiro[cyclobutane-1,3′-pyrido[2,3-b][1,4]diazepin]-8′-yl)-N-methyl-N-((3-methylbenzofuran-2-yl)methyl)acrylamide]
MIC50 (Neisseria gonorrhoeae; [6]): < 1 µg/mL
Papp A→B at 120 min [4]: 3.4 ×10⁻⁶ cm/s
bioavailability [1]: 18%
Predict Human hep ER [2]: 0.28
IC50 [3]: < 10 nM

Compound: O=C1CCNc2cc(/C=C/C(=O)N3C[C@H]4CC(c5ccc(Oc6ccncc6)cc5)=C[C@H]4C3)cnc2N1 (racemic) [Compound 90, 8-((E)-3-Oxo-3-((3rS,6rR)-5-(4-(pyridin-4-yloxy)phenyl)-3,3r,4,6r-tetrahydrocyclopenta[c]pyrrol-2(1H)-yl)prop-1-en-1-yl)-1,2,3,5-tetrahydro-4H-pyrido[2,3-b][1,4]diazepin-4-one]
MIC50 (Neisseria gonorrhoeae; agar dilution, GC agar base, minimum of 15 clinical isolates): <1 µg/mL
Caco-2 Papp A2B (Caco-2): 10.7 10−6 cm/s
Mouse F (%) [1]: 7%
Predict Human hep ER [2]: 0.03
IC50 ([3]; read-out: ngFabI IC50, recombinant N. gonorrhoeae FabI, 30° C., pH 7.2): < 10 nM

Compound: Cc1c(CN(C)C(=O)/C=C/c2cnc3c(c2)NC[C@H](O)C(=O)N3)oc2cccc(N)c12 [Compound 275, (E)-N-[(4-Amino-3-methyl-benzofuran-2-yl)methyl]-3-[(3S)-3-hydroxy-4-oxo-1,2,3,5-tetrahydropyrido[2,3-b][1,4]diazepin-8-yl]-N-methyl-prop-2-enamide]
MIC50 (Neisseria gonorrhoeae; [6]): < 1 µg/mL
bioavailability [1]: 51%
IC50 [5]: < 5000 nM
IC50 [3]: < 10 nM

Compound: COc1cccc(Oc2cccc3c(CN(C)C(=O)/C=C/c4cnc5c(c4)NCCC(=O)N5)c(C)oc23)c1 [Compound 155, (E)-N-((7-(3-methoxyphenoxy)-2-methylbenzofuran-3-yl)methyl)-N-methyl-3-(4-oxo-2,3,4,5-tetrahydro-1H-pyrido[2,3-b][1,4]diazepin-8-yl)acrylamide]
MIC50 (Neisseria gonorrhoeae; [6]): < 1 µg/mL
bioavailability [1]: 28%
IC50 [5]: < 1000 nM
Predict Human hep ER [2]: 0.32
IC50 [3]: < 10 nM

Other lines, results leading:

MIC50 (Neisseria gonorrhoeae; [6]): < 1 µg/mL
bioavailability [1]: 9%
Predict Human hep ER [2]: 0.43
IC50 [3]: < 10 nM
Compound: Cc1oc2c(Oc3ccc4c(c3)N(C)CC4)cccc2c1CN(C)C(=O)/C=C/c1cnc2c(c1)NCCC(=O)N2 [Compound 134, (E)-N-Methyl-N-((2-methyl-7-((1-methylindolin-6-yl)oxy)benzofuran-3-yl)methyl)-3-(4-oxo-2,3,4,5-tetrahydro-1H-pyrido[2,3-b][1,4]diazepin-8-yl)acrylamide]

MIC50 (Neisseria gonorrhoeae; [6]): < 1 µg/mL
bioavailability [1]: 13%
Predict Human hep ER [2]: 0.13
IC50 [3]: < 10 nM
Compound: COc1cc(Oc2ccc(C3=C[C@H]4CN(C(=O)/C=C/c5cnc6c(c5)NCCC(=O)N6)C[C@H]4C3)cc2)ccc1C#N [Compound 140, 2-methoxy-4-(4-((3rS,6rR)-2-((E)-3-(4-oxo-2,3,4,5-tetrahydro-1H-pyrido[2,3-b][1,4]diazepin-8-yl)acryloyl)-1,2,3,3r,4,6r-hexahydrocyclopenta[c]pyrrol-5-yl)phenoxy)benzonitrile]

MIC50 (Neisseria gonorrhoeae; [6]): < 1 µg/mL
bioavailability [1]: 44%
Predict Human hep ER [2]: 0.07
IC50 [3]: < 10 nM
Compound: Cc1oc2c(Oc3ccc4c(c3)OCO4)cccc2c1CN(C)C(=O)/C=C/c1cnc2c(c1)NC[C@@](C)(O)C(=O)N2 [Compound 176, (R,E)-N-((7-(benzo[d][1,3]dioxol-5-yloxy)-2-methylbenzofuran-3-yl)methyl)-3-(3-hydroxy-3-methyl-4-oxo-2,3,4,5-tetrahydro-1H-pyrido[2,3-b][1,4]diazepin-8-yl)-N-methylacrylamide]

MIC50 (Neisseria gonorrhoeae; [6]): < 1 µg/mL
bioavailability [1]: 26%
Predict Human hep ER [2]: 0.02
IC50 [3]: < 10 nM
Compound: COc1cccc(Oc2ccc(C3=C[C@H]4CN(C(=O)/C=C/c5cnc6c(c5)NCCC(=O)N6)C[C@H]4C3)cc2)c1 [Compound 129, 8-((E)-3-((3rS,6rR)-5-(4-(3-methoxyphenoxy)phenyl)-3,3r,4,6r-tetrahydrocyclopenta[c]pyrrol-2(1H)-yl)-3-oxoprop-1-en-1-yl)-1,2,3,5-tetrahydro-4H-pyrido[2,3-b][1,4]diazepin-4-one]
